Laboratory results: patent publication US12655116B2, “Substituted isophthalic acid diamides” (Bayer Aktiengesellschaft, priority 2020, dated 2026)

Experiments:
VERPE [1] = assay: Post-emergence herbicidal action against VERPE; format: in vivo, Veronica persica
Summary of the method: (§1)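 Spray, one-leaf stage: WP or EC compound in water, 600–800 l/ha, 0.2% wetting agent. Plants held about 3 weeks in the greenhouse, then visually rated in percent of kill compared with untreated controls.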

ABUTH [2] = assay: Post-emergence herbicidal action against ABUTH; format: in vivo, Abutilon theophrasti; details: visual assessment about 3 weeks after treatment vs untreated controls
Summary of the method: as §1

ECHCG [3] = assay: Post-emergence herbicidal action against ECHCG; format: in vivo, Echinochloa crus-galli
Summary of the method: as §1

SETVI [4] = assay: Pre-emergence herbicidal action against SETVI; format: in vivo, Setaria viridis
Summary of the method: (§2)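 Pre-emergence soil-surface spray of formulated compound (WP or EC; 600 to 800 l/ha; 0.2% wetting agent) over seeds sown in sandy loam. After 3 weeks under greenhouse conditions, damage is estimated visually in percent against untreated plants.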

AMARE [5] = assay: Post-emergence herbicidal action against AMARE; format: in vivo, Amaranthus retroflexus; details: 20 g/ha, visual assessment about 3 weeks after treatment, 100% = plants have died, 0% = like control plants
Summary of the method: as §1

PHBPU [6] = assay: Post-emergence herbicidal action against PHBPU; format: in vivo, Pharbitis purpurea; details: dosage 20 g/ha
Summary of the method: as §1

ALOMY [7] = assay: Post-emergence herbicidal action against ALOMY; format: in vivo, Alopecurus myosuroides; details: visual assessment about 3 weeks after treatment vs untreated controls
Summary of the method: as §1

MATIN [8] = assay: Post-emergence herbicidal action against MATIN; format: in vivo, Matricaria inodora; details: dosage 20 g/ha
Summary of the method: as §1

ALOMY [9] = assay: Pre-emergence herbicidal action against ALOMY; format: in vivo, Alopecurus myosuroides
Summary of the method: as §2

VIOTR [10] = assay: Post-emergence herbicidal action against VIOTR; format: in vivo, Viola tricolor
Summary of the method: as §1

SETVI [11] = assay: Post-emergence herbicidal action against SETVI; format: in vivo, Setaria viridis; details: dosage 20 g/ha
Summary of the method: as §1

VERPE [12] = assay: Pre-emergence herbicidal action against VERPE; format: in vivo, Veronica persica
Summary of the method: as §2

PHBPU [13] = assay: Pre-emergence herbicidal action against PHBPU; format: in vivo, Pharbitis purpurea; details: dosage 80 g/ha
Summary of the method: as §2

MATIN [14] = assay: Pre-emergence herbicidal action against MATIN; format: in vivo, Matricaria inodora
Summary of the method: as §2

POLCO = assay: Pre-emergence herbicidal action against POLCO; format: in vivo, Polygonum convolvulus; details: dosage 80 g/ha
Summary of the method: as §2

ECHCG [15] = assay: Pre-emergence herbicidal action against ECHCG; format: in vivo, Echinochloa crus-galli
Summary of the method: as §2

VIOTR [16] = assay: Pre-emergence herbicidal action against VIOTR; format: in vivo, Viola tricolor
Summary of the method: as §2

AMARE [17] = assay: Pre-emergence herbicidal action against AMARE; format: in vivo, Amaranthus retroflexus
Summary of the method: as §2

ABUTH [18] = assay: Pre-emergence herbicidal action against ABUTH; format: in vivo, Abutilon theophrasti
Summary of the method: as §2

AVEFA = assay: Pre-emergence herbicidal action against AVEFA; format: in vivo, Avena fatua
Summary of the method: as §2

[19] = 20 g/ha, scored visually after 3 weeks, 100% = plants have died, 0% = like control plants
[20] = 80 g/ha, scored visually after 3 weeks vs untreated controls (100% = plants have died, 0% = like control plants)

Q: `CCc1c(C(=O)Nc2nnnn2C)ccc(C(F)(F)F)c1C(=O)NC(C)C1CC1` (stereo not drawn) [Example 1-341] was tested. Which “Post-emergence action against VERPE in %” value (VERPE [1]; 5 g/ha) did it give?
A: 80%

Q: And the “Post-emergence action against VERPE in %” value (VERPE [1]; 20 g/ha)?
A: 90%

Q: And the “Post-emergence action against ABUTH in %” value (ABUTH [2]; dosage 20 g/ha)?
A: 80%

Q: What about the “Post-emergence action against ECHCG in %” value (ECHCG [3]; dosage 5 g/ha) of the same compound?
A: 80%

Q: What about the “Post-emergence action against ECHCG in %” value (ECHCG [3]; dosage 20 g/ha) of the same compound?
A: 90%

Q: And the “Pre-emergence action against SETVI in %” value (SETVI [4]; dosage 20 g/ha)?
A: 80%

Q: And the “Pre-emergence action against SETVI in %” value (SETVI [4]; dosage 80 g/ha)?
A: 100%

Q: What about the “Post-emergence action at 20 g/ha against AMARE in %” value (AMARE [5]) of the same compound?
A: 100%

Q: What about the “Post-emergence action against PHBPU in %” value (PHBPU [6]) of the same compound?
A: 80%

Q: What about the “Post-emergence action against ALOMY in %” value (ALOMY [7]; dosage 20 g/ha) of the same compound?
A: 80%

Q: What about the “Post-emergence action against MATIN in %” value (MATIN [8]) of the same compound?
A: 80%

Q: What about the “Pre-emergence action against ALOMY” value (ALOMY [9]; [19]) of the same compound?
A: 80%

Q: And the “Pre-emergence action against ALOMY (herbicidal activity)” value (ALOMY [9]; 80 g/ha, pre-emergence, scored visually after 3 weeks vs untreated controls (100% = plants have died, 0% = like control plants))?
A: 90%

Q: What about the “Post-emergence action against VIOTR in %” value (VIOTR [10]; 20 g/ha) of the same compound?
A: 80%

Q: And the “Post-emergence action against SETVI in %” value (SETVI [11])?
A: 80%

Q: What about the “Pre-emergence action against VERPE in %” value (VERPE [12]; dosage 20 g/ha) of the same compound?
A: 80%

Q: And the “Pre-emergence action against VERPE in %” value (VERPE [12]; dosage 80 g/ha)?
A: 90%

Q: And the “Pre-emergence action against PHBPU in %” value (PHBPU [13])?
A: 80%

Q: What about the “Pre-emergence action against MATIN in %” value (MATIN [14]; dosage 20 g/ha) of the same compound?
A: 100%

Q: What about the “Pre-emergence action against MATIN in %” value (MATIN [14]; dosage 80 g/ha) of the same compound?
A: 100%

Q: And the “Pre-emergence action against POLCO in %” value (POLCO)?
A: 80%

Q: And the “Pre-emergence action against ECHCG in %” value (ECHCG [15]; 80 g/ha)?
A: 90%

Q: And the “Pre-emergence action against VIOTR in %” value (VIOTR [16]; dosage 20 g/ha)?
A: 100%

Q: What about the “Pre-emergence action against VIOTR in %” value (VIOTR [16]; dosage 80 g/ha) of the same compound?
A: 100%

Q: And the “Pre-emergence action against AMARE in %” value (AMARE [17]; 20 g/ha, scored visually after 3 weeks vs untreated controls, 100% = plants have died, 0% = like control plants)?
A: 100%

Q: What about the “Pre-emergence action against AMARE in %” value (AMARE [17]; [20]) of the same compound?
A: 100%

Q: What about the “Pre-emergence action against ABUTH (herbicidal activity)” value (ABUTH [18]; [20]) of the same compound?
A: 100%

Q: And the “Pre-emergence action against ABUTH (herbicidal activity in percent)” value (ABUTH [18]; dosage 20 g/ha, scored visually after 3 weeks vs untreated controls, 100% = plants have died, 0% = like control plants)?
A: 100%

Q: And the “Pre-emergence action against AVEFA” value (AVEFA; [19])?
A: 80%

Q: And the “Pre-emergence action against AVEFA in %” value (AVEFA; 80 g/ha, pre-emergence)?
A: 90%

Q: Which pest or weed control at 20 g/ha (VERPE [1]; Veronica persica, 504 h, 20 g/ha) does the source give for `CCCNC(=O)c1c(C(F)F)ccc(C(=O)Nc2nnnn2CC)c1C` [Example 2-344] here?
A: 80%

Q: And the pest or weed control at 5 g/ha (ABUTH [2]; Abutilon theophrasti, 504 h, dosage 5 g/ha)?
A: 90%

Q: And the pest or weed control at 20 g/ha (ABUTH [2]; Abutilon theophrasti, 504 h, dosage 20 g/ha)?
A: 90%

Q: And the pest or weed control at 5 g/ha (ECHCG [3]; Echinochloa crus-galli, 504 h, dosage 5 g/ha)?
A: 80%

Q: What about the pest or weed control at 20 g/ha (ECHCG [3]; Echinochloa crus-galli, 504 h, dosage 20 g/ha) of the same compound?
A: 90%

Q: And the pest or weed control at 80 g/ha (SETVI [4]; Setaria viridis, 504 h, dosage 80 g/ha)?
A: 80%

Q: And the pest or weed control at 20 g/ha (AMARE [5]; Amaranthus retroflexus, 504 h)?
A: 100%

Q: And the pest or weed control at 20 g/ha (PHBPU [6]; Ipomoea purpurea, 504 h)?
A: 80%

Q: And the pest or weed control at 5 g/ha (ALOMY [7]; Alopecurus myosuroides, 504 h, dosage 5 g/ha)?
A: 80%

Q: What about the pest or weed control at 20 g/ha (ALOMY [7]; Alopecurus myosuroides, 504 h, dosage 20 g/ha) of the same compound?
A: 90%

Q: And the pest or weed control at 20 g/ha (MATIN [8]; Tripleurospermum inodorum, 504 h)?
A: 80%

Q: What about the pest or weed control at 80 g/ha (ALOMY [9]; Alopecurus myosuroides, 504 h, 80 g/ha, pre-emergence, scored visually after 3 weeks vs untreated controls (100% = plants have died, 0% = like control plants)) of the same compound?
A: 100%

Q: What about the pest or weed control at 20 g/ha (ALOMY [9]; Alopecurus myosuroides, pre-emergence, 504 h, 20 g/ha, scored visually after 3 weeks, 100% = plants have died, 0% = like control plants) of the same compound?
A: 80%

Q: And the pest or weed control at 5 g/ha (VIOTR [10]; Viola tricolor, 504 h, 5 g/ha)?
A: 90%

Q: What about the pest or weed control at 20 g/ha (VIOTR [10]; Viola tricolor, 504 h, 20 g/ha) of the same compound?
A: 100%

Q: What about the pest or weed control at 20 g/ha (SETVI [11]; Setaria viridis, 504 h) of the same compound?
A: 80%

Q: And the pest or weed control at 80 g/ha (VERPE [12]; Veronica persica, 504 h, dosage 80 g/ha)?
A: 80%

Q: What about the pest or weed control at 80 g/ha (PHBPU [13]; Ipomoea purpurea, 504 h) of the same compound?
A: 90%

Q: What about the pest or weed control at 20 g/ha (MATIN [14]; Tripleurospermum inodorum, 504 h, dosage 20 g/ha) of the same compound?
A: 100%

Q: And the pest or weed control at 80 g/ha (MATIN [14]; Tripleurospermum inodorum, 504 h, dosage 80 g/ha)?
A: 100%

Q: What about the pest or weed control at 80 g/ha (POLCO; Fallopia convolvulus, 504 h) of the same compound?
A: 90%

Q: And the pest or weed control at 20 g/ha (ECHCG [15]; Echinochloa crus-galli, 504 h, 20 g/ha)?
A: 90%

Q: What about the pest or weed control at 80 g/ha (ECHCG [15]; Echinochloa crus-galli, 504 h, 80 g/ha) of the same compound?
A: 100%

Q: And the pest or weed control at 20 g/ha (VIOTR [16]; Viola tricolor, 504 h, dosage 20 g/ha)?
A: 80%

Q: What about the pest or weed control at 80 g/ha (VIOTR [16]; Viola tricolor, 504 h, dosage 80 g/ha) of the same compound?
A: 100%

Q: And the pest or weed control at 20 g/ha (AMARE [17]; Amaranthus retroflexus, 504 h, 20 g/ha, scored visually after 3 weeks vs untreated controls, 100% = plants have died, 0% = like control plants)?
A: 100%

Q: And the pest or weed control at 80 g/ha (AMARE [17]; Amaranthus retroflexus, 504 h, 80 g/ha, scored visually after 3 weeks vs untreated controls, 100% = plants have died, 0% = like control plants)?
A: 100%

Q: What about the pest or weed control at 80 g/ha (ABUTH [18]; Abutilon theophrasti, 504 h, 80 g/ha, scored visually after 3 weeks vs untreated controls (100% = plants have died, 0% = like control plants)) of the same compound?
A: 100%

Q: What about the pest or weed control at 20 g/ha (ABUTH [18]; Abutilon theophrasti, 504 h, dosage 20 g/ha, scored visually after 3 weeks vs untreated controls, 100% = plants have died, 0% = like control plants, read-out: Pre-emergence action against ABUTH (herbicidal activity in percent)) of the same compound?
A: 100%

Q: And the pest or weed control at 80 g/ha (AVEFA; Avena fatua, 504 h, 80 g/ha, pre-emergence)?
A: 80%
